Test results: the supplement of paper PMC12463676, “Small-molecule dissolution of stress granules by redox modulation benefits ALS models” (Nature Chemical Biology, 2025)

Assays:
[1] = compound: O=[As]([O-])(O)O.[K+] [potassium arsenate]; test: thermal stability z-score vs DMSO; higher = more thermally stabilized by treatment; details: HeLa; arsenate concentration 1 mM
Description: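 Cellular thermal proteome profiling in HeLa cells treated with 1 mM arsenate for 1 h (DMSO pretreatment), heated to ten temperatures (37-66.3 °C). Soluble protein was quantified by TMT mass spectrometry relative to DMSO controls; the thermal stability score was transformed to a z-score; mean of n = 3 experiments.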

[2] = compound: NC(=O)CCCCC1CCSS1 [lipoamide]; test: as above; details: HeLa, lipoamide concentration 100 µM
Description: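 Cellular thermal proteome profiling in HeLa cells. Cells were treated with 100 µM lipoamide for 1 h, with or without 1 mM arsenate for a further 1 h, then heated to ten temperatures (37-66.3 °C), and soluble protein was quantified by TMT mass spectrometry relative to 0.1% DMSO controls. The thermal stability score (sum of log2 fold changes minus the abundance score) was transformed to a z-score; mean of n = 3 experiments.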

[3] = arsenate co-treatment: 1 mM arsenate 1 h
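Also: each temperature applied for 3 min, abundance score taken as mean log2 fold change at the two lowest temperatures, z-score obtained by mean subtraction and division by SD.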

UniProt P05387, sequence (P05387 whole entry): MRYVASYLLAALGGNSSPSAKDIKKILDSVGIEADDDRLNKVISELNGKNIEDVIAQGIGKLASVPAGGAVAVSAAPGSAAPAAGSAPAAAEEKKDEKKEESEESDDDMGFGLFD
UniProt Q9H6T3, sequence (Q9H6T3 whole entry): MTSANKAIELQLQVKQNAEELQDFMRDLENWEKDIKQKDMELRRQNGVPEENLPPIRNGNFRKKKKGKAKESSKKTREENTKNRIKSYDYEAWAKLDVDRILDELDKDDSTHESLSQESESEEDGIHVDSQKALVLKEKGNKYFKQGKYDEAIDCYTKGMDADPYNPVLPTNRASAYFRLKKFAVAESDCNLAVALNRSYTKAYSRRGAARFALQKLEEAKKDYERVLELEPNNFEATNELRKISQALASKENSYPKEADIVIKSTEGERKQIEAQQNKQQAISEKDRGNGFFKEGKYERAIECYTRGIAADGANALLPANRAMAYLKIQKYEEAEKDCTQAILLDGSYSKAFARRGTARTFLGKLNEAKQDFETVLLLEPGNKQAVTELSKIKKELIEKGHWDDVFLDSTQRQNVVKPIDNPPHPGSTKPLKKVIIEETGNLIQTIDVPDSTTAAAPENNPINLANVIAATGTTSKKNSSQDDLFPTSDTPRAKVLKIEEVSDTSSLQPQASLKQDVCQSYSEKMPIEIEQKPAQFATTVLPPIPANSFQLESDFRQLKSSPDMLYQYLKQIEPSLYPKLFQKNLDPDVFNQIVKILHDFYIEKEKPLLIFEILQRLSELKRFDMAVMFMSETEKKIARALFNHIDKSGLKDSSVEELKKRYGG
UniProt Q9Y6N7, sequence (Q9Y6N7 whole entry): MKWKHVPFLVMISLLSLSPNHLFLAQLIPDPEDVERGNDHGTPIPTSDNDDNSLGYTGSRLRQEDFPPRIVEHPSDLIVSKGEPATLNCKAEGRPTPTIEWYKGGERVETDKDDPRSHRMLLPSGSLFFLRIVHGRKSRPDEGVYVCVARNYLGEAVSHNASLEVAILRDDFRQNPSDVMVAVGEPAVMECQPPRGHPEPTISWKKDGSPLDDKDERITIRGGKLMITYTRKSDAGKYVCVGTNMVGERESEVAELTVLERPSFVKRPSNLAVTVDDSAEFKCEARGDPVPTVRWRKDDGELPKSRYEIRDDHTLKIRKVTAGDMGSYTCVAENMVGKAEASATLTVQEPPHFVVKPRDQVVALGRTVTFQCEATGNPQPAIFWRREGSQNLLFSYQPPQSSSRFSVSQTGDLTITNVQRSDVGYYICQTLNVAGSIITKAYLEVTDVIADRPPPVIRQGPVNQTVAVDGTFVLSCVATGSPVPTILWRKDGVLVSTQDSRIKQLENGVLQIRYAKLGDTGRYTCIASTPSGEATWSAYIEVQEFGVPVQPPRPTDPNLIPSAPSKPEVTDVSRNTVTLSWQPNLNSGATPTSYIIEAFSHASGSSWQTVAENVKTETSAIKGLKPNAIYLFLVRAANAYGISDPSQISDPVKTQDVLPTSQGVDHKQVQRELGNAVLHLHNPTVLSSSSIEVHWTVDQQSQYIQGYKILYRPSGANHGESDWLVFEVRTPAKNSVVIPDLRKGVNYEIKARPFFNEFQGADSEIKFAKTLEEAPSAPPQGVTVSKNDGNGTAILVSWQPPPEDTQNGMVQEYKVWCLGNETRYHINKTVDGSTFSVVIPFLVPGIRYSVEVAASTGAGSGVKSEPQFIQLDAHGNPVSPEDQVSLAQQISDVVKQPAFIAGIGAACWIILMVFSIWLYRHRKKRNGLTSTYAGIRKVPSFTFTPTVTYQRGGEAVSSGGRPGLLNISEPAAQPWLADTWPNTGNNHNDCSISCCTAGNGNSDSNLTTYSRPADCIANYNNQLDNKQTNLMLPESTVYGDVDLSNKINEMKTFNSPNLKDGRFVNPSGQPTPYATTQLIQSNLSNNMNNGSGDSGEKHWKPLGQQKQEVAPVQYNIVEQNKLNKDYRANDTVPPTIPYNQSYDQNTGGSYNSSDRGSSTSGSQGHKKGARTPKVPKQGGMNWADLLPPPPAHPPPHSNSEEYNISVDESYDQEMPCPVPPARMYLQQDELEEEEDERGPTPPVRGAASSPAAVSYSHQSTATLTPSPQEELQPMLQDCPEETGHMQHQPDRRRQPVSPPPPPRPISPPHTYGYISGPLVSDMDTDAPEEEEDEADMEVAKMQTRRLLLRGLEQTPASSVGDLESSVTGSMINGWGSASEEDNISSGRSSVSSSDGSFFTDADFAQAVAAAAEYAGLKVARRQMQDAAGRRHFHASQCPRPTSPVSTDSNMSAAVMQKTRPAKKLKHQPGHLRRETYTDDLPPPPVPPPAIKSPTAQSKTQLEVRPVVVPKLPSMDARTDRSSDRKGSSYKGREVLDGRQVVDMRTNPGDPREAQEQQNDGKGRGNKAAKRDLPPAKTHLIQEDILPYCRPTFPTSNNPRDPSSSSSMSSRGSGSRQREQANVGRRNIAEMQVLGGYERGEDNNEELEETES
UniProt Q9H4A4, sequence (Q9H4A4 whole entry): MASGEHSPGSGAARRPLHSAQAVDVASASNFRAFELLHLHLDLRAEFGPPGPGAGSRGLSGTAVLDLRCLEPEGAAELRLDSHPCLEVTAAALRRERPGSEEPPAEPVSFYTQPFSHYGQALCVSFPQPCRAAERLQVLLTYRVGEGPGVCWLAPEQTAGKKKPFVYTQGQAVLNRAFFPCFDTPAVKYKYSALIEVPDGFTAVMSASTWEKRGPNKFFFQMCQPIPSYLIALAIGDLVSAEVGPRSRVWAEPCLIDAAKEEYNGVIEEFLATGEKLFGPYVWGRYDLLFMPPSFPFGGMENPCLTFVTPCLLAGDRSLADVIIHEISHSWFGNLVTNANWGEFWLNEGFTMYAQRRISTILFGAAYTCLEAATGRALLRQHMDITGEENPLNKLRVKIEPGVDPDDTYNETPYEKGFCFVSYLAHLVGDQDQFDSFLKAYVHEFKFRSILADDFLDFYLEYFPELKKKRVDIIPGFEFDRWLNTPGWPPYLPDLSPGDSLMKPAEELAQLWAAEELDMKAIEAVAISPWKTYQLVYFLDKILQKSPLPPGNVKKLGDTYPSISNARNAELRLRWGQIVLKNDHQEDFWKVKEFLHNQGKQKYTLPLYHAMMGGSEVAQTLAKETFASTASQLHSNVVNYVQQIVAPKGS
UniProt Q13464, sequence (Q13464 whole entry, looked up): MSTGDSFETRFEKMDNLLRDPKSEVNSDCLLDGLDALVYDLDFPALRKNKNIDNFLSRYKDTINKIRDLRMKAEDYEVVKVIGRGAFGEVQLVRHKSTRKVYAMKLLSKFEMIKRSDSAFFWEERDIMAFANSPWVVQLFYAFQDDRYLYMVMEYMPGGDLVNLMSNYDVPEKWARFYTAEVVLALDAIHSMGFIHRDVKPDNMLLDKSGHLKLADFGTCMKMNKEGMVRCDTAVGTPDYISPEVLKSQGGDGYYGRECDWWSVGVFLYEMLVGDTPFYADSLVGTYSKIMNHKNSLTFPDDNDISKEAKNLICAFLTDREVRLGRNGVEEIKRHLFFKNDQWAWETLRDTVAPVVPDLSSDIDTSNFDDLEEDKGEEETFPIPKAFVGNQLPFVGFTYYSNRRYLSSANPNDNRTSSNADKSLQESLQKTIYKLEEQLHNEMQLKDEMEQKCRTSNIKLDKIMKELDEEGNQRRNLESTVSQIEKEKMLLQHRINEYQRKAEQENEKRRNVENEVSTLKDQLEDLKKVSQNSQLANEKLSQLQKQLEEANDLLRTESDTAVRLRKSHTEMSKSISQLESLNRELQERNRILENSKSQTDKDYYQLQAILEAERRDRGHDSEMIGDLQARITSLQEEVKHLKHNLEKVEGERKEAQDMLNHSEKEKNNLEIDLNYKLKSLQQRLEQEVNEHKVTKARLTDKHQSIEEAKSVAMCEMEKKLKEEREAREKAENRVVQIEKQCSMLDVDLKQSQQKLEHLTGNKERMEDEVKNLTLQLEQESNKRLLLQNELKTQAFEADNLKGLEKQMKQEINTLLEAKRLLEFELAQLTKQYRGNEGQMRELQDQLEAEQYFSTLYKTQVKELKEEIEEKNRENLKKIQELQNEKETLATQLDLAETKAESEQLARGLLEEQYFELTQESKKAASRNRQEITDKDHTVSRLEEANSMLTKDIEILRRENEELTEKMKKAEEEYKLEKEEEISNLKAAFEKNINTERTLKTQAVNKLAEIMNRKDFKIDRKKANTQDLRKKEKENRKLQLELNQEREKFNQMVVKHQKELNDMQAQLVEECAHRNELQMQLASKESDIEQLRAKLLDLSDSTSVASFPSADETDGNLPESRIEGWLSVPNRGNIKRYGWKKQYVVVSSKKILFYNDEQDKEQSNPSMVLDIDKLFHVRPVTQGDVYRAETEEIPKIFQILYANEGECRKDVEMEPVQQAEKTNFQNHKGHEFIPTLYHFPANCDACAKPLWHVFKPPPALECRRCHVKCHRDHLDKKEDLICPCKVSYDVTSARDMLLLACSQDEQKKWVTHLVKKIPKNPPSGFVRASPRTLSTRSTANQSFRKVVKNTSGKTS
UniProt P35244, sequence (P35244 whole entry): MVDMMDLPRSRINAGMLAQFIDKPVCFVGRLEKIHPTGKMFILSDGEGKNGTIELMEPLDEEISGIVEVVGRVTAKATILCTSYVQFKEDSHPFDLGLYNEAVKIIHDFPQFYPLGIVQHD
UniProt Q8N5L8, sequence (Q8N5L8 whole entry): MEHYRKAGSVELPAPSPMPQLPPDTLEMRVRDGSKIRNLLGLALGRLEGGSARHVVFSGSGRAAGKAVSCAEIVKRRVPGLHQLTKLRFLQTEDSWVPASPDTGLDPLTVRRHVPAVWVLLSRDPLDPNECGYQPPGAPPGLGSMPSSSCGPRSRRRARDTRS
UniProt Q9H633, sequence (Q9H633 whole entry): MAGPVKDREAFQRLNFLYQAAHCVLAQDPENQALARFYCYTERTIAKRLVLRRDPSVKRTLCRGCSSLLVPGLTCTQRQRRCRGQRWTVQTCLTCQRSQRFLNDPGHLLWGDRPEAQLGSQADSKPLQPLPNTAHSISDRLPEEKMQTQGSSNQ
UniProt P05386, sequence (P05386 whole entry): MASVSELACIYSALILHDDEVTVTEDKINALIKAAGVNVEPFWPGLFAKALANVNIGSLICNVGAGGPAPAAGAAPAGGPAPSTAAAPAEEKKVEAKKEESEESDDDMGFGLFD

| Target | thermal stability z-score [1] | thermal stability z-score [2, 3] | thermal stability z-score ([2]; arsenate co-treatment: none) |
| --- | --- | --- | --- |
| RNH1 (UniProt P13489) | -4.26 | 0.376 | 0.478 |
| RNMT (UniProt O43148) | 0.381 | 0.428 | 0.541 |
| RNPEP (UniProt Q9H4A4) | 0.878 | 0.126 | -0.189 |
| RNPS1 (UniProt Q15287) | 0.528 | 1.23 | 0.438 |
| ROBO1 (UniProt Q9Y6N7) | -0.29 | 0.154 | 0.0459 |
| ROCK1 (UniProt Q13464) | -0.122 | -0.134 | 0.211 |
| ROCK2 (UniProt O75116) | 0.245 | 0.504 | 0.462 |
| ROR2 (UniProt Q01974) | -0.811 | 0.3 | 0.449 |
| RP2 (UniProt O75695) | -0.738 | 0.38 | 1.49 |
| RPA1 (UniProt P27694) | 0.0213 | -0.6 | -0.317 |
| RPA2 (UniProt P15927) | 0.659 | -0.131 | -0.662 |
| RPA3 (UniProt P35244) | 0.872 | 0.313 | 0.624 |
| RPAP1 (UniProt Q9BWH6) | 0.256 | -0.806 | -0.223 |
| RPAP2 (UniProt Q8IXW5) | -0.0605 | -0.0831 | -0.0884 |
| RPAP3 (UniProt Q9H6T3) | 0.38 | -0.367 | -0.207 |
| RPE (UniProt Q96AT9) | -0.0195 | 0.536 | 0.285 |
| RPIA (UniProt P49247) | 0.27 | 0.704 | 0.8 |
| RPL3 (UniProt P39023) | -0.75 | 0.408 | -0.0552 |
| RPL4 (UniProt P36578) | -0.66 | 0.486 | 0.0127 |
| RPL5 (UniProt P46777) | -0.481 | 0.172 | 0.132 |
| RPL6 (UniProt Q02878) | -0.92 | 0.349 | 0.0467 |
| RPL7 (UniProt P18124) | -0.13 | 1.02 | 0.379 |
| RPL7A (UniProt P62424) | -0.955 | 0.455 | 0.197 |
| RPL7L1 (UniProt Q6DKI1) | -0.203 | 0.203 | 0.0421 |

| Target | thermal stability z-score [1] | thermal stability z-score [2, 3] | thermal stability z-score ([2]; arsenate co-treatment: none) |
| --- | --- | --- | --- |
| RPL8 (UniProt P62917) | -1.07 | 0.0892 | -0.22 |
| RPL9 (UniProt P32969) | -0.232 | 0.762 | 0.659 |
| RPL10 (UniProt P27635) | -0.781 | 0.0934 | -0.15 |
| RPL10A (UniProt P62906) | 0.27 | 0.849 | 0.534 |
| RPL11 (UniProt P62913) | -1.44 | 0.156 | 0.371 |
| RPL12 (UniProt P30050) | -0.459 | 0.344 | 0.0511 |
| RPL13 (UniProt P26373) | -1.05 | -0.064 | 0.00879 |
| RPL13A (UniProt P40429) | -0.496 | 0.328 | 0.16 |
| RPL14 (UniProt P50914) | -1.08 | 0.565 | 0.492 |
| RPL15 (UniProt P61313) | -0.589 | 0.537 | 0.113 |
| RPL17 (UniProt P18621) | -0.755 | 0.743 | 0.704 |
| RPL18 (UniProt Q07020) | -0.424 | 0.497 | -0.313 |
| RPL18A (UniProt Q02543) | -0.333 | 0.628 | 0.246 |
| RPL19 (UniProt P84098) | -1.08 | 0.269 | -0.195 |
| RPL21 (UniProt P46778) | -1.03 | 0.61 | 0.308 |
| RPL22 (UniProt P35268) | -0.98 | -0.122 | -0.292 |
| RPL22L1 (UniProt Q6P5R6) | -0.919 | -0.147 | -0.537 |
| RPL23 (UniProt P62829) | -0.839 | 0.548 | -0.122 |
| RPL23A (UniProt P62750) | -1.49 | -0.321 | -0.341 |
| RPL24 (UniProt P83731) | -0.927 | 0.228 | -0.084 |
| RPL26 (UniProt P61254) | -0.347 | 1.18 | 0.347 |
| RPL26L1 (UniProt Q9UNX3) | 0.434 | 0.252 | 0.884 |
| RPL27 (UniProt P61353) | -0.612 | 0.459 | 0.431 |
| RPL27A (UniProt P46776) | -0.482 | 0.419 | 0.401 |

| Target | thermal stability z-score [1] | thermal stability z-score [2, 3] | thermal stability z-score ([2]; arsenate co-treatment: none) |
| --- | --- | --- | --- |
| RPL28 (UniProt P46779) | -0.548 | 0.57 | 0.375 |
| RPL29 (UniProt P47914) | -0.918 | 0.301 | -0.146 |
| RPL30 (UniProt P62888) | -0.666 | 0.771 | 0.183 |
| RPL31 (UniProt P62899) | -0.8 | -0.223 | -0.0856 |
| RPL32 (UniProt P62910) | -0.93 | 0.158 | -0.028 |
| RPL34 (UniProt P49207) | -1.17 | 0.331 | 0.134 |
| RPL35 (UniProt P42766) | -0.812 | 0.579 | 0.674 |
| RPL35A (UniProt P18077) | -0.477 | 0.893 | 0.484 |
| RPL36 (UniProt Q9Y3U8) | -1.19 | 0.354 | -0.0802 |
| RPL37 (UniProt P61927) | -0.915 | 0.254 | 0.203 |
| RPL37A (UniProt P61513) | -0.29 | 0.766 | 0.392 |
| RPL38 (UniProt P63173) | -0.704 | 0.982 | 0.439 |
| RPLP0 (UniProt P05388) | -0.4 | 1.08 | 0.341 |
| RPLP1 (UniProt P05386) | 0.00244 | 1.44 | 0.753 |
| RPLP2 (UniProt P05387) | 0.225 | 1.56 | 1.34 |
| RPN1 (UniProt P04843) | 0.346 | -1.47 | -0.974 |
| RPN2 (UniProt P04844) | 0.141 | -2.41 | -1.79 |
| RPP21 (UniProt Q9H633) | -0.209 | -0.411 | -0.242 |
| RPP25 (UniProt Q9BUL9) | -1.34 | -0.534 | -0.856 |
| RPP25L (UniProt Q8N5L8) | 0.245 | 0.36 | 0.117 |
| RPP30 (UniProt P78346) | -1.55 | -0.9 | -0.668 |
| RPP38 (UniProt P78345) | -0.347 | -0.128 | 0.146 |
| RPP40 (UniProt O75818) | -1.15 | 0.705 | -0.123 |
